In ChEMBL document CHEMBL6074711, “Design, Synthesis, and Activity Evaluation of C-23-Modified 5-O-Mycaminosyltylonolide Derivatives” (ACS Med Chem Lett, 2024):
Converted amounts (≈) assume the structure as drawn.

Key:
Assay type in all cases: functional
Conditions in all cases: time 16-20 hrs
Enterococcus faecalis = test: Antibacterial activity against Enterococcus faecalis ATCC29212 incubated for 16 to 20 hrs by broth microdilution method
[1] = system: Stenotrophomonas maltophilia; test: Antibacterial activity against Stenotrophomonas maltophilia ATCC17808 incubated for 16 to 20 hrs by broth microdilution method
Staphylococcus aureus = test: Antibacterial activity against Staphylococcus aureus ATCC25923 incubated for 16 to 20 hrs by broth microdilution method
Escherichia coli = test: Antibacterial activity against Escherichia coli ATCC25922 incubated for 16 to 20 hrs by broth microdilution method

Row | Compound | MIC (Enterococcus faecalis) [µg/mL] | MIC [1] [µg/mL] | MIC (Staphylococcus aureus) [µg/mL] | MIC (Escherichia coli) [µg/mL]
1 | CC[C@H]1OC(=O)C[C@@H](O)[C@H](C)[C@@H](O[C@@H]2O[C@H](C)[C@@H](O)[C@H](N(C)C)[C@H]2O)[C@@H](CCN(C)Cc2cn(-c3cnc4ccccc4c3)nn2)C[C@@H](C)C(=O)/C=C/C(C)=C/[C@@H]1CNCc1ccc(Cl)cc1 | 2 (≈ 2.12 µM) | 4 (≈ 4.23 µM) | 2 (≈ 2.12 µM) | 1 (≈ 1.06 µM)
2 | CC[C@H]1OC(=O)C[C@@H](O)[C@H](C)[C@@H](O[C@@H]2O[C@H](C)[C@@H](O)[C@H](N(C)C)[C@H]2O)[C@@H](CCN(C)Cc2cn(-c3cnc4ccccc4c3)nn2)C[C@@H](C)C(=O)/C=C/C(C)=C/[C@@H]1CN(CC)Cc1ccccc1 | 4 (≈ 4.26 µM) | 2 (≈ 2.13 µM) | 2 (≈ 2.13 µM) | 8 (≈ 8.53 µM)
3 | CC[C@H]1OC(=O)C[C@@H](O)[C@H](C)[C@@H](O[C@@H]2O[C@H](C)[C@@H](O)[C@H](N(C)C)[C@H]2O)[C@@H](CCN(C)Cc2cn(-c3cnc4ccccc4c3)nn2)C[C@@H](C)C(=O)/C=C/C(C)=C/[C@@H]1CN1CCCc2ccccc21 | 2 (≈ 2.14 µM) | 4 (≈ 4.27 µM) | 2 (≈ 2.14 µM) | 2 (≈ 2.14 µM)
4 | CC[C@H]1OC(=O)C[C@@H](O)[C@H](C)[C@@H](O[C@@H]2O[C@H](C)[C@@H](O)[C@H](N(C)C)[C@H]2O)[C@@H](CCN(C)Cc2cn(-c3cnc4ccccc4c3)nn2)C[C@@H](C)C(=O)/C=C/C(C)=C/[C@@H]1CN(Cc1ccccc1)C(C)C | 16 (≈ 16.8 µM) | 8 (≈ 8.4 µM) | 8 (≈ 8.4 µM) | 16 (≈ 16.8 µM)
5 | CCc1ccc(NC[C@H]2/C=C(C)/C=C/C(=O)[C@H](C)C[C@H](CCN(C)Cc3cn(-c4cnc5ccccc5c4)nn3)[C@H](O[C@@H]3O[C@H](C)[C@@H](O)[C@H](N(C)C)[C@H]3O)[C@@H](C)[C@H](O)CC(=O)O[C@@H]2CC)cc1 | 2 (≈ 2.16 µM) | 2 (≈ 2.16 µM) | 2 (≈ 2.16 µM) | 2 (≈ 2.16 µM)
6 | CC[C@H]1OC(=O)C[C@@H](O)[C@H](C)[C@@H](O[C@@H]2O[C@H](C)[C@@H](O)[C@H](N(C)C)[C@H]2O)[C@@H](CCN(C)Cc2cn(-c3cnc4ccccc4c3)nn2)C[C@@H](C)C(=O)/C=C/C(C)=C/[C@@H]1CNCc1ccc(F)cc1 | 8 (≈ 8.62 µM) | 4 (≈ 4.31 µM) | 2 (≈ 2.15 µM) | 8 (≈ 8.62 µM)
7 | CC[C@H]1OC(=O)C[C@@H](O)[C@H](C)[C@@H](O[C@@H]2O[C@H](C)[C@@H](O)[C@H](N(C)C)[C@H]2O)[C@@H](CCN(C)Cc2cn(-c3cnc4ccccc4c3)nn2)C[C@@H](C)C(=O)/C=C/C(C)=C/[C@@H]1CNc1ccc(I)cc1 | 8 (≈ 7.83 µM) | 4 (≈ 3.91 µM) | 2 (≈ 1.96 µM) | 4 (≈ 3.91 µM)
8 | CC[C@H]1OC(=O)C[C@@H](O)[C@H](C)[C@@H](O[C@@H]2O[C@H](C)[C@@H](O)[C@H](N(C)C)[C@H]2O)[C@@H](CCN(C)Cc2cn(-c3cnc4ccccc4c3)nn2)C[C@@H](C)C(=O)/C=C/C(C)=C/[C@@H]1CNc1ccc(C)cc1 | 8 (≈ 8.79 µM) | 4 (≈ 4.39 µM) | 4 (≈ 4.39 µM) | 4 (≈ 4.39 µM)

Next, values leading:

Row | MIC (Enterococcus faecalis) [µg/mL] | MIC [1] [µg/mL] | MIC (Staphylococcus aureus) [µg/mL] | MIC (Escherichia coli) [µg/mL] | Compound
9 | 4 (≈ 4.39 µM) | 2 (≈ 2.2 µM) | 1 (≈ 1.1 µM) | 2 (≈ 2.2 µM) | CC[C@H]1OC(=O)C[C@@H](O)[C@H](C)[C@@H](O[C@@H]2O[C@H](C)[C@@H](O)[C@H](N(C)C)[C@H]2O)[C@@H](CCN(C)Cc2cn(-c3cnc4ccccc4c3)nn2)C[C@@H](C)C(=O)/C=C/C(C)=C/[C@@H]1CNCc1ccccc1
10 | 2 (≈ 2.23 µM) | 1 (≈ 1.12 µM) | 2 (≈ 2.23 µM) | 1 (≈ 1.12 µM) | CC[C@H]1OC(=O)C[C@@H](O)[C@H](C)[C@@H](O[C@@H]2O[C@H](C)[C@@H](O)[C@H](N(C)C)[C@H]2O)[C@@H](CCNCc2cn(-c3cnc4ccccc4c3)nn2)C[C@@H](C)C(=O)/C=C/C(C)=C/[C@@H]1CNCc1ccccc1
11 | 8 (≈ 8.09 µM) | 8 (≈ 8.09 µM) | 4 (≈ 4.04 µM) | 8 (≈ 8.09 µM) | CC[C@H]1OC(=O)C[C@@H](O)[C@H](C)[C@@H](O[C@@H]2O[C@H](C)[C@@H](O)[C@H](N(C)C)[C@H]2O)[C@@H](CCN(C)Cc2cn(-c3cnc4ccccc4c3)nn2)C[C@@H](C)C(=O)/C=C/C(C)=C/[C@@H]1CNCc1cccc(Br)c1
12 | 2 (≈ 2.23 µM) | 8 (≈ 8.93 µM) | 2 (≈ 2.23 µM) | 2 (≈ 2.23 µM) | CC[C@H]1OC(=O)C[C@@H](O)[C@H](C)[C@@H](O[C@@H]2O[C@H](C)[C@@H](O)[C@H](N(C)C)[C@H]2O)[C@@H](CCNCc2cn(-c3cnc4ccccc4c3)nn2)C[C@@H](C)C(=O)/C=C/C(C)=C/[C@@H]1CNc1ccc(C)cc1
13 | 2 (≈ 2.16 µM) | 1 (≈ 1.08 µM) | 2 (≈ 2.16 µM) | 1 (≈ 1.08 µM) | CC[C@H]1OC(=O)C[C@@H](O)[C@H](C)[C@@H](O[C@@H]2O[C@H](C)[C@@H](O)[C@H](N(C)C)[C@H]2O)[C@@H](CCNCc2cn(-c3cnc4ccccc4c3)nn2)C[C@@H](C)C(=O)/C=C/C(C)=C/[C@@H]1CN(CC)Cc1ccccc1
